Results on 26 compounds are retold here after US12286435B2, “Compound having benzo seven-membered ring structure, preparation method therefor, and use thereof” (BIONNA (BEIJING) MEDICAL TECHNOLOGY CO., LTD., priority 2019, dated 2025).

The target in one assay is BRD4 BD1 protein (Homo sapiens (Human), UniProt O60885). Nature of the assay: Fluorescence polarization binding affinity (Ki) with BRD4 BD1 protein. Conditions: fluorescence polarization; Ki calculated from IC50.
In the next assay the target is BRD4 BD2 protein (Homo sapiens (Human), UniProt O60885). Nature of the assay: Fluorescence polarization binding affinity (Ki) with BRD4 BD2 protein. As to conditions: fluorescence polarization; Ki calculated from IC50.
Assay [1] relates to multiple myeloma MM.1S cell line. Nature of the assay: Cell viability (CCK-8), multiple myeloma MM.1S. As to conditions: Homo sapiens, MM1.S, 96 h, MM.1S cells, 4 days, CCK-8, 50% inhibition of cell growth. The assay is classed as cell-based. The essentials: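 Cells (about 3000-5000 per well) exposed to 3-fold serial dilutions of compound for 4 days at 37° C, 5% CO2. CCK-8 added 2-4 h, absorbance at 450 nm, viability normalised to untreated cells after medium-only blank subtraction; IC50 is concentration giving 50% growth inhibition.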

Values joined by “and” are separate entries in the source; they are usually repeats but may differ in a detail not shown here. Identical values can stand only once.

For orientation: Ki means a measure of affinity in units of concentration, obtained from inhibition or displacement. One may read the IC50 as the concentration needed to halve the response being measured.

For `Cc1nnn2c1-c1ccc(-c3cnn(C)c3)cc1C(Nc1ccccc1CC(=O)O)CC2` (stereo not drawn) [LB185, 2-(2-((1-methyl-9-(1-methyl-1H-pyrazol-4-yl)-6,7-dihydro-5H-benzo[c][1,2,3]triazolo[1,5-a]azepin-7-yl)amino)phenyl)acetic acid], the inhibition constant Ki was 218 nM on BRD4 BD1 protein and 14.5 nM on BRD4 BD2 protein. In addition, it took 1620 nM to reach half-maximal inhibition in assay [1] (IC50).

Turning to `Cc1nnn2c1-c1ccc(-c3cnn(C)c3)cc1C(N(C)c1ccc(Cl)cc1)CC2` (stereo not drawn) [RB66, N-(4-chlorophenyl)-N,1-dimethyl-9-(1-methyl-1H-pyrazol-4-yl)-6,7-dihydro-5H-benzo[c][1,2,3]triazolo[1,5-a]azepin-7-amine], the values for the Ki on BRD4 BD1 protein and on BRD4 BD2 protein were 62.9 nM and 9 nM, respectively. This compound had an IC50 in assay [1] of 31.3 nM.

For `COc1ccc2c(c1)C(Nc1ccc(C(F)(F)F)cc1)CCc1onc(C)c1-2` (stereo not drawn) [FA05, 8-methoxy-1-methyl-N-(4-(trifluoromethyl)phenyl)-5,6-dihydro-4H-benzo[6,7]cyclohepta[1,2-d]isoxazol-6-amine], the figures for the inhibitory constant (Ki) at BRD4 BD1 protein and on BRD4 BD2 protein were 204 nM and 138 nM, respectively. In assay [1], this compound showed a half-maximal inhibitory concentration (IC50) of 25.2 nM.

On to `Cc1nnn2c1-c1ccc(-c3cnn(C)c3)cc1C(Oc1ccc(Cl)cc1)CC2` (stereo not drawn) [BE128, 7-(4-chlorophenoxy)-1-methyl-9-(1-methyl-1H-pyrazol-4-yl)-6,7-dihydro-5H-benzo[c][1,2,3]triazolo[1,5-a]azepine], for which the inhibitory constant (Ki) on BRD4 BD1 protein was 176 nM; on BRD4 BD2 protein it was 17.1 nM. Further, 689 nM corresponded to half-maximal inhibition in assay [1] (IC50).

Regarding `COc1ccc2c(c1)C(Nc1ccccc1)CCc1onc(C)c1-2` (stereo not drawn) [FA03, 8-methoxy-1-methyl-N-phenyl-5,6-dihydro-4H-benzo[6,7]cyclohepta[1,2-d]isoxazol-6-amine], the inhibition constant (Ki) was 206 nM on BRD4 BD1 protein and 56.3 nM at BRD4 BD2 protein. Also, the IC50 in assay [1] was 502 nM.

`Cc1nnn2c1-c1ccc(-c3cnn(C)c3)cc1C(Nc1ccc(OCCO)cc1)CC2` (stereo not drawn) [LB68, 2-(4-((1-methyl-9-(1-methyl-1H-pyrazol-4-yl)-6,7-dihydro-5H-benzo[c][1,2,3]triazolo[1,5-a]azepin-7-yl)amino)phenoxy)ethanol]: the inhibition constant Ki on BRD4 BD1 protein was 68.5 nM; at BRD4 BD2 protein it was 13 nM. Also, the IC50 in assay [1] came out at 112 nM.

Regarding `CNC(=O)c1ccc(NC2CCn3nnc(C)c3-c3ccc(-c4cnn(C)c4)cc32)cc1` (stereo not drawn) [LB128], the Ki on BRD4 BD1 protein was 89.3 nM; at BRD4 BD2 protein, 22.8 nM. Also, the IC50 in assay [1] is 153 nM.

Take `Cc1nnn2c1-c1ccc(C3=CCNCC3)cc1C(Nc1cccc(Cl)c1)CC2` (stereo not drawn) [LC79, N-(3-chlorophenyl)-1-methyl-9-(1,2,3,6-tetrahydropyridin-4-yl)-6,7-dihydro-5H-benzo[c][1,2,3]triazolo[1,5-a]azepin-7-amine 2,2,2-trifluoroacetate]: the inhibition constant (Ki) on BRD4 BD1 protein is 639 nM; on BRD4 BD2 protein, 34.2 nM. The IC50 in assay [1] was 936 nM.

With `Cc1nnn2c1-c1ccc(-c3cnn(C)c3)cc1C(Nc1ccccc1O)CC2` (stereo not drawn) [LB170, 2-((1-methyl-9-(1-methyl-1H-pyrazol-4-yl)-6,7-dihydro-5H-benzo[c][1,2,3]triazolo[1,5-a]azepin-7-yl)amino)phenol], the Ki on BRD4 BD1 protein was 74.8 nM; on BRD4 BD2 protein, 4.78 nM. The same compound had a 50% inhibitory concentration (IC50) in assay [1] of 152 nM.

For `Cc1nnn2c1-c1ccc(-c3cnn(C)c3)cc1C(Nc1cccc3ncccc13)CC2` (stereo not drawn) [LB86, 1-methyl-9-(1-methyl-1H-pyrazol-4-yl)-N-(quinolin-5-yl)-6,7-dihydro-5H-benzo[c][1,2,3]triazolo[1,5-a]azepin-7-amine], the Ki at BRD4 BD1 protein was 56 nM; on BRD4 BD2 protein, 14 nM. In assay [1], the IC50 came out at 45.1 nM.

For the compound `COc1ccc2c(c1)C(Nc1ccc(F)cc1)CCc1onc(C)c1-2` (stereo not drawn) [BB189, N-(4-fluorophenyl)-8-methoxy-1-methyl-5,6-dihydro-4H-benzo[6,7]cyclohepta[1,2-d]isoxazol-6-amine], the figures for the inhibition constant Ki at BRD4 BD1 protein and on BRD4 BD2 protein were 172 nM and 92.1 nM, respectively. Besides, the 50% inhibitory concentration (IC50) in assay [1] came to 230 nM.

As to `Cc1nnn2c1-c1ccc(-c3cnn(C)c3)cc1C(Nc1cccc(C(=O)O)c1)CC2` (stereo not drawn) [LB97, 3-((1-methyl-9-(1-methyl-1H-pyrazol-4-yl)-6,7-dihydro-5H-benzo[c][1,2,3]triazolo[1,5-a]azepin-7-yl)amino)benzoic acid], the Ki at BRD4 BD1 protein was 355 nM; at BRD4 BD2 protein, 27.9 nM. Also, in assay [1], the IC50 was found to be 8160 nM.

Consider `Cc1nnn2c1-c1ccc(C3=CCNCC3)cc1C(Nc1cccc(O)c1)CC2` (stereo not drawn) [LC97, 3-((1-methyl-9-(1,2,3,6-tetrahydropyridin-4-yl)-6,7-dihydro-5H-benzo[c][1,2,3]triazolo[1,5-a]azepin-7-yl)amino)phenol 2,2,2-trifluoroacetate], for which the inhibition constant Ki at BRD4 BD1 protein was 795 nM; at BRD4 BD2 protein it was 40.6 nM. The concentration for half-maximal inhibition (IC50) in assay [1] amounted to 591 nM.

In the case of `Cc1nnn2c1-c1ccc(-c3cnn(C)c3)cc1C(Nc1ccccc1C(=O)O)CC2` (stereo not drawn) [LB173, 2-((1-methyl-9-(1-methyl-1H-pyrazol-4-yl)-6,7-dihydro-5H-benzo[c][1,2,3]triazolo[1,5-a]azepin-7-yl)amino)benzoic acid], the inhibition constant (Ki) at BRD4 BD1 protein was 179 nM; at BRD4 BD2 protein, 32.1 nM. Further, in assay [1], the midpoint of inhibition, the IC50, lay at 1200 nM.

As to `Cc1cc(NC2CCn3nnc(C)c3-c3ccc(-c4cnn(C)c4)cc32)n(C)n1` (stereo not drawn) [BE114, N-(1,3-dimethyl-1H-pyrazol-5-yl)-1-methyl-9-(1-methyl-1H-pyrazol-4-yl)-6,7-dihydro-5H-benzo[c][1,2, 3]triazolo[1,5-a]azepin-7-amine], the inhibition constant (Ki) on BRD4 BD1 protein is 45.4 nM; on BRD4 BD2 protein it was 7 nM. Besides, the half-maximal inhibitory concentration (IC50) in assay [1] was found to be 775 nM.

For `Cc1nnn2c1-c1ccc(-c3cnn(C)c3)cc1C(Nc1ccc(CCN(C)C)cc1)CC2` (stereo not drawn) [LB139, N-(4-(2-(dimethylamino)ethyl)phenyl)-1-methyl-9-(1-methyl-1H-pyrazol-4-yl)-6,7-dihydro-5H-benzo[c][1,2,3]triazolo[1,5-a]azepin-7-amine], the inhibition constant Ki on BRD4 BD1 protein was 124 nM; at BRD4 BD2 protein, 48.3 nM. Further, in assay [1], the IC50 was 120 nM.

Consider `Cc1nnn2c1-c1ccc(-c3cnn(C)c3)cc1C(Nc1ccc(Cl)cc1)CC2C` (stereo not drawn) [BE25, N-(4-chlorophenyl)-1,5-dimethyl-9-(1-methyl-1H-pyrazol-4-yl)-6,7-dihydro-5H-benzo[c][1,2,3]triazolo[1,5-a]azepin-7-amine], for which the inhibitory constant (Ki) at BRD4 BD1 protein was 20.8 nM; at BRD4 BD2 protein, 9.4 nM. Further, the IC50 in assay [1] is 3.47 nM.

`CNC(=O)c1cccc(NC2CCn3nnc(C)c3-c3ccc(-c4cnn(C)c4)cc32)c1` (stereo not drawn) [LB181]: the Ki at BRD4 BD1 protein is 132 nM; at BRD4 BD2 protein it was 14.5 nM. The same compound showed an IC50 in assay [1] of 168 nM.

With `Cc1nnn2c1-c1ccc(-c3cnn(C)c3)cc1C(Nc1ccc(F)cc1F)CC2` (stereo not drawn) [LC01, N-(2,4-difluorophenyl)-1-methyl-9-(1-methyl-1H-pyrazol-4-yl)-6,7-dihydro-5H-benzo[c][1,2,3]triazolo[1,5-a]azepin-7-amine], the inhibitory constant (Ki) on BRD4 BD1 protein is 56 nM; on BRD4 BD2 protein, 28.4 nM and 9.08 nM. Further, the IC50 in assay [1] was 48.8 nM.

With `COc1cccc(NC2CCn3nnc(C)c3-c3ccc(C4=CCN(C(C)C)CC4)cc32)c1` (stereo not drawn) [BH37, 9-(1-isopropyl-1,2,3,6-tetrahydropyridin-4-yl)-N-(3-methoxyphenyl)-1-methyl-6,7-dihydro-5H-benzo[c][1,2,3]triazolo[1,5-a]azepin-7-amine 2,2,2-trifluoroacetate], the Ki at BRD4 BD1 protein is 1880 nM and 1560 nM; at BRD4 BD2 protein, 61.9 nM and 28.3 nM. Further, half-maximal inhibition in assay [1] (IC50) was put at 352 nM.

With `Cc1nnn2c1-c1ccc(-c3cccc4[nH]cnc34)cc1C(Nc1ccc(Cl)cc1)CC2` (stereo not drawn) [RB42, 9-(1H-benzo[d]imidazol-4-yl)-N-(4-chlorophenyl)-1-methyl-6,7-dihydro-5H-benzo[c][1,2,3]triazolo[1,5-a]azepin-7-amine], the inhibition constant (Ki) on BRD4 BD1 protein was 53 nM; on BRD4 BD2 protein, 25.7 nM. Moreover, 324 nM corresponded to half-maximal inhibition in assay [1] (IC50).

On to `Cc1nnn2c1-c1ccc(-c3cnn(C)c3)cc1C(Nc1ccccc1CCO)CC2` (stereo not drawn) [LA198, 2-(2-((1-methyl-9-(1-methyl-1H-pyrazol-4-yl)-6,7-dihydro-5H-benzo[c][1,2,3]triazolo[1,5-a]azepin-7-yl)amino)phenyl)ethan-1-ol], for which the Ki was 44 nM at BRD4 BD1 protein and 21.4 nM at BRD4 BD2 protein. The compound further showed an IC50 in assay [1] of 22.9 nM.

`COC(=O)c1cccc(NC2CCn3nnc(C)c3-c3ccc(-c4cnn(C)c4)cc32)c1` (stereo not drawn) [LB92, methyl 3-((1-methyl-9-(1-methyl-1H-pyrazol-4-yl)-6,7-dihydro-5H-benzo[c][1,2,3]triazolo[1,5-a]azepin-7-yl)amino)benzoate]: the values for the inhibition constant (Ki) at BRD4 BD1 protein and at BRD4 BD2 protein were 133 nM and 17.9 nM, respectively. Besides, in assay [1], inhibition was half-maximal at 121 nM (IC50).

Consider `Cc1nnn2c1-c1ccccc1C(Nc1cccc3cnccc13)CC2` (stereo not drawn) [LB103, N-(isoquinolin-5-yl)-1-methyl-6,7-dihydro-5H-benzo[c][1,2,3]triazolo [1,5-a]azepin-7-amine], for which the inhibitory constant (Ki) at BRD4 BD1 protein is 607 nM; on BRD4 BD2 protein, 95.2 nM. Further, the IC50 in assay [1] stood at 389 nM.

For `Cc1nnn2c1-c1ccc(-c3cnn(C)c3)cc1C(Nc1cccc(C#N)c1)CC2` (stereo not drawn) [LC07, 3-((1-methyl-9-(1-methyl-1H-pyrazol-4-yl)-6,7-dihydro-5H-benzo[c][1,2,3]triazolo[1,5-a]azepin-7-yl)amino)benzonitrile], the Ki on BRD4 BD1 protein was 134 nM; on BRD4 BD2 protein it was 8.4 nM and 18.8 nM. Moreover, the midpoint of inhibition in assay [1], the IC50, lay at 165 nM.

As to `Cc1nnn2c1-c1ccc(-c3cnn(C)c3)cc1C(Nc1ccccc1OCCO)CC2` (stereo not drawn) [LB90, 2-(2-((1-methyl-9-(1-methyl-1H-pyrazol-4-yl)-6,7-dihydro-5H-benzo[c][1,2,3]triazolo[1,5-a]azepin-7-yl)amino)phenoxy)ethanol], the inhibition constant Ki is 134 nM at BRD4 BD1 protein and 16.5 nM on BRD4 BD2 protein. In addition, in assay [1], the half-maximal inhibitory concentration (IC50) worked out at 51.9 nM.
